Molecules are shown by their SMILES. Converted amounts (≈) assume the structure as drawn.

Series [1] is described as follows: Compound solubility in water.
A further series addresses T1, acid ceramidase (Homo sapiens, UniProt Q13510).
T1 construct: Cell lysates overexpressing acid ceramidase were used as the enzyme source; expressed in transfected cells
T1 sequence (Q13510 22-395): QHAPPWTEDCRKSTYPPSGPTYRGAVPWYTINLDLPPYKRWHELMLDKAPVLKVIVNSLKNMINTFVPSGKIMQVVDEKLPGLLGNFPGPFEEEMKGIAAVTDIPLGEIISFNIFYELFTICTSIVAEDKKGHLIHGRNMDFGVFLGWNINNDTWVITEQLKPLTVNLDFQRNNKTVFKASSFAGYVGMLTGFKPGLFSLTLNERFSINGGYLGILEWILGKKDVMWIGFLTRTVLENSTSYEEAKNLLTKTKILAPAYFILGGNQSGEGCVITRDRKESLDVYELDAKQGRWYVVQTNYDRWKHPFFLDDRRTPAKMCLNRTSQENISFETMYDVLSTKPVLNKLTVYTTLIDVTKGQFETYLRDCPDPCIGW
The experiment in a line: Acid ceramidase inhibition, biochemical fluorescent assay with cell lysates overexpressing acid ceramidase, substrate Rbm14-12. The following applies: substrate Rbm14-12 6.3 μM. An outline of the steps: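 Lysate of cells overexpressing acid ceramidase (10 μg protein) preincubated with compound dose series 1 hr at RT in 25 mM NaAC, 100 mM NaCl, pH 4.5, then reacted 1 hr with 6.3 μM Rbm14-12. Stopped with NaIO4/glycine buffer pH 10.6, fluorescence ex360/em446; IC50 by four-parameter fit.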

The mark [2] stands for this setting: pH 4.5, 1 hr preincubation at RT.

What is called solubility is the dissolved amount per volume that the medium holds. A high value points to a readily soluble substance. A word on the IC50: it is the concentration at which inhibition is half-maximal. Lower therefore signals greater potency. `CC(C)C#CCNC(=O)n1cnc2c(N3CCN(CCC(F)(F)F)CC3)cccc21` [Example 310, N-(4-Methylpent-2-yn-1-yl)-4-(4-(3,3,3-trifluoropropyl)piperazin-1-yl)-1H-benzo[d]imidazole-1-carboxamide]: in series [1], the solubility is 4 µg/mL (≈ 9.49 µM). On acid ceramidase (pH 4.5), this compound showed a concentration for half-maximal inhibition (IC50) below 200 nM.
`CC(C)CCNC(=O)n1cnc2c(N3CCN4C(=O)CCC4C3)cccc21` (stereo not shown) [Example 209, N-iso-Pentyl-4-(6-oxohexahydropyrrolo[1,2-a]pyrazin-2(1H)-yl)-1H-benzo[d]imidazole-1-carboxamide] displayed a solubility in series [1] of 24 µg/mL (≈ 65 µM). At acid ceramidase (pH 4.5), the half-maximal inhibitory concentration (IC50) lay in the range of 200 to 1000 nM.
Turning to `COc1nc2cc(C3CCN(C)CC3)ccc2n1C(=O)NCC(C)C` [Example 193, N-iso-Butyl-2-methoxy-5-(1-methylpiperidin-4-yl)-1H-benzo[d]imidazole-1-carboxamide], in series [1], the concentration in solution (solubility) was 39 µg/mL (≈ 113 µM). Besides, the IC50 against acid ceramidase (pH 4.5) is above 1000 nM.
The matching figures for `COCCOc1nc2ccccc2n1C(=O)NCCCc1ccccc1` [Example 191, 2-(2-Methoxyethoxy)-N-(3-phenylpropyl)-1H-benzo[d]imidazole-1-carboxamide]: 4 µg/mL (≈ 11.3 µM) and below 200 nM.
On to `COc1nc2cc(N3CCOCC3)ccc2n1C(=O)NCCCCn1ccc(C(C)(C)C)n1` [Example 188a, N-(4-(3-(tert-Butyl)-1H-pyrazol-1-yl)butyl)-2-methoxy-5-morpholino-1H-benzo[d]imidazole-1-carboxamide], for which, in series [1], the solubility was 27 µg/mL (≈ 59.4 µM). Further, the IC50 against acid ceramidase (pH 4.5) lay in the range of 200 to 1000 nM.
The compound `CN(C)CC1CN(c2cccc3c2ncn3C(=O)NCCOc2ccccc2)C1` [Example 330, 4-(3-((Dimethylamino)methyl)azetidin-1-yl)-N-(2-phenoxyethyl)-1H-benzo[d]imidazole-1-carboxamide] had a solubility in series [1] of 38 µg/mL (≈ 96.6 µM). Further, the IC50 on acid ceramidase (pH 4.5) was below 200 nM.
As for `CC(=O)N1CCN(c2cccc3c2ncn3C(=O)NCCCC2(C(F)(F)F)CC2)CC1` [Example 235, 4-(4-Acetylpiperazin-1-yl)-N-(3-(1-(trifluoromethyl)cyclopropyl)propyl)-1H-benzo[d]imidazole-1-carboxamide], the solubility in series [1] was determined as 20 µg/mL (≈ 45.7 µM). On acid ceramidase (pH 4.5), this compound returned a half-inhibitory concentration (IC50) below 200 nM.
For `O=C1CN(c2cccc3c2ncn3C(=O)NCCCc2ccccc2)CCN1C1CC1` [Example 252, 4-(4-Cyclopropyl-3-oxopiperazin-1-yl)-N-(3-phenylpropyl)-1H-benzo[d]imidazole-1-carboxamide], in that order: 1 µg/mL (≈ 2.4 µM) and below 200 nM.
`COc1nc2ccc(-c3cncnc3)cc2n1C(=O)NC1CCCCC1` [Example 111a, N-Cyclohexyl-2-methoxy-6-(pyrimidin-5-yl)-1H-benzo[d]imidazole-1-carboxamide] displayed a solubility in series [1] of 6 µg/mL (≈ 17.1 µM). The compound also displayed an IC50 against acid ceramidase (setting [2]) below 200 nM.
As to `N#Cc1cccc2c1ncn2C(=O)NCCOc1ccccc1` [Example 74, 4-Cyano-N-(2-phenoxyethyl)-1H-benzo[d]imidazole-1-carboxamide], the concentration in solution in series [1] (solubility) was 5.9 µg/mL (≈ 19.3 µM). At acid ceramidase (setting [2]), this compound yielded an IC50 below 200 nM.
On to `CN1CC2CC1CN2c1cccc2c1ncn2C(=O)NCCC1CCC(F)(F)C1` (stereo not shown) [Example 293, N-(2-(3,3-difluorocyclopentyl)ethyl)-4-(5-methyl-2,5-diazabicyclo[2.2.1]heptan-2-yl)-1H-benzo[d]imidazole-1-carboxamide], for which the solubility in series [1] is 39 µg/mL (≈ 96.7 µM). Also, the half-inhibitory concentration (IC50) at acid ceramidase (pH 4.5) was in the range of 200 to 1000 nM.
With `CC(C)CCNC(=O)n1cnc2c(N3C[C@@H](C)O[C@@H](C)C3)cccc21` [Example 167, 4-((2S,6R)-2,6-Dimethylmorpholino)-N-iso-pentyl-1H-benzo[d]imidazole-1-carboxamide], the solubility in series [1] worked out at 4 µg/mL (≈ 11.6 µM). In addition, the half-maximal inhibitory concentration (IC50) at acid ceramidase (pH 4.5) was 200 to 1000 nM.
The matching figures for `CN1CC(N2CCN(c3cccc4c3ncn4C(=O)NCCC3CCC(F)(F)C3)CC2)C1` (stereo not shown) [Example 287, N-(2-(3,3-Difluorocyclopentyl)ethyl)-4-(4-(1-methylazetidin-3-yl)piperazin-1-yl)-1H-benzo[d]imidazole-1-carboxamide]: 36 µg/mL (≈ 80.6 µM) and 200 to 1000 nM.
`CCN1CCN(c2cccc3c2ncn3C(=O)NCCCc2ccccc2)CC1` [Example 249, 4-(4-Ethylpiperazin-1-yl)-N-(3-phenylpropyl)-1H-benzo[d]imidazole-1-carboxamide] yielded a solubility in series [1] of 12 µg/mL (≈ 30.6 µM). The 50% inhibitory concentration (IC50) on acid ceramidase (pH 4.5) was below 200 nM.
In turn, `CC(C)CCNC(=O)n1cnc2c(N3CCN(C(C)C)CC3)cccc21` [Example 207, N-iso-Pentyl-4-(4-isopropylpiperazin-1-yl)-1H-benzo[d]imidazole-1-carboxamide] had a solubility in series [1] of 32 µg/mL (≈ 89.5 µM). Besides, the IC50 at acid ceramidase (pH 4.5) was 200 to 1000 nM.
The matching figures for `CC(C)CCNC(=O)n1cnc2c(N3C[C@H]4C[C@@H]3CO4)cccc21` [Example 166, 4-((1R,4R)-2-Oxa-5-azabicyclo[2.2.1]heptan-5-yl)-N-iso-pentyl-1H-benzo[d]imidazole-1-carboxamide]: 12 µg/mL (≈ 36.5 µM) and 200 to 1000 nM.
In series [1], `CN1CCN(C2CN(c3cccc4c3ncn4C(=O)NCCc3ccccc3)C2)CC1` [Example 349, 4-(3-(4-Methylpiperazin-1-yl)azetidin-1-yl)-N-phenethyl-1H-benzo[d]imidazole-1-carboxamide] displayed a solubility of 37 µg/mL (≈ 88.4 µM). At acid ceramidase (setting [2]), this compound registered a half-maximal inhibitory concentration (IC50) of 200 to 1000 nM.
Compound `CC(C)(C)CCNC(=O)n1cnc2c(N3CCN(C4CC4)CC3)cccc21` [Example 185, 4-(4-Cyclopropylpiperazin-1-yl)-N-(3,3-dimethylbutyl)-1H-benzo[d]imidazole-1-carboxamide] yielded a solubility in series [1] of 2 µg/mL (≈ 5.41 µM). At acid ceramidase (pH 4.5), this compound showed an IC50 of 200 to 1000 nM.
Consider `C[C@H](CCNC(=O)n1cnc2c(N3CCN(C)CC3)cccc21)c1ccccc1` [Example 253b, (R)-4-(4-methylpiperazin-1-yl)-N-(3-phenylbutyl)-1H-benzo[d]imidazole-1-carboxamide], for which the concentration in solution in series [1] (solubility) came to 27 µg/mL (≈ 69 µM). In addition, the half-maximal inhibitory concentration (IC50) on acid ceramidase (pH 4.5) is below 200 nM.
`Cc1cc(C2CCN(C)CC2)c2ncn(C(=O)NCCC(C)C)c2c1` [Example 112a] registered a solubility in series [1] of 22.9 µg/mL (≈ 66.9 µM). The half-maximal inhibitory concentration (IC50) at acid ceramidase (setting [2]) was in the range of 200 to 1000 nM.
Take `COCCOc1nc2ccc(N3CCOCC3)cc2n1C(=O)NCCCc1ccccc1` [Example 190b, 2-(2-methoxyethoxy)-6-morpholino-N-(3-phenylpropyl)-1H-benzo[d]imidazole-1-carboxamide]: the concentration in solution in series [1] (solubility) came to 16 µg/mL (≈ 36.5 µM). Besides, at acid ceramidase (pH 4.5), the IC50 is below 200 nM.
`CCCCNC(=O)n1cnc2ccc(F)cc21` [Example 69, N-Butyl-6-fluoro-1H-benzo[d]imidazole-1-carboxamide] displayed a solubility in series [1] of 20.2 µg/mL (≈ 85.9 µM). The compound also registered an IC50 against acid ceramidase (setting [2]) of 200 to 1000 nM.
For `CN1CCN(c2cccc3c2ncn3C(=O)NCC#Cc2ccccc2F)CC1` [Example 338, N-(3-(2-Fluorophenyl)prop-2-yn-1-yl)-4-(4-methylpiperazin-1-yl)-1H-benzo[d]imidazole-1-carboxamide], in that order: 18 µg/mL (≈ 46 µM) and below 200 nM.
For `CN1CCN(CCOc2nc3ccccc3n2C(=O)NCCc2ccccc2)CC1` [Example 343], in that order: 24 µg/mL (≈ 58.9 µM) and 200 to 1000 nM.
For `CCCCNC(=O)n1c(=O)n(C)c2nc(-c3cncnc3)ccc21` [Example 84, N-Butyl-3-methyl-2-oxo-5-(pyrimidin-5-yl)-2,3-dihydro-1H-imidazo[4,5-b]pyridine-1-carboxamide], the solubility in series [1] was 0.9 µg/mL (≈ 2.76 µM). Besides, on acid ceramidase (setting [2]), the IC50 was 200 to 1000 nM.
Consider `COc1nc2cc(N3CCOCC3)c(F)cc2n1C(=O)NCC#CC(C)C` [Example 321a, 6-Fluoro-2-methoxy-N-(4-methylpent-2-yn-1-yl)-5-morpholino-1H-benzo[d]imidazole-1-carboxamide], for which the solubility in series [1] was 2 µg/mL (≈ 5.34 µM). In addition, at acid ceramidase (pH 4.5), the 50% inhibitory concentration (IC50) fell in the range of 200 to 1000 nM.
`O=C(NCCOc1ccccc1)n1cnc2ncccc21` [Example 62, N-(2-Phenoxyethyl)-1H-imidazo[4,5-b]pyridine-1-carboxamide] yielded a solubility in series [1] of 26.6 µg/mL (≈ 94.2 µM). This compound also came in with a 50% inhibitory concentration (IC50) at acid ceramidase (setting [2]) below 200 nM.
For `CN1CCN(c2cccc3c2ncn3C(=O)NCC#Cc2ccc(F)cc2)CC1` [Example 336, N-(3-(4-Fluorophenyl)prop-2-yn-1-yl)-4-(4-methylpiperazin-1-yl)-1H-benzo[d]imidazole-1-carboxamide], in that order: 15 µg/mL (≈ 38.3 µM) and below 200 nM.
The matching figures for `CC(C)C#CCNC(=O)n1cnc2c(N3CC(N(C)C)C3)cccc21` [Example 355, 4-(3-(Dimethylamino)azetidin-1-yl)-N-(4-methylpent-2-yn-1-yl)-1H-benzo[d]imidazole-1-carboxamide]: 22 µg/mL (≈ 64.8 µM) and 200 to 1000 nM.
On to `CCCCNC(=O)n1cnc2c(C3CCN(C)CC3)cc(C)cc21` [Example 107a], for which the solubility in series [1] is 31.7 µg/mL (≈ 96.5 µM). The compound further gave an IC50 against acid ceramidase (setting [2]) of 200 to 1000 nM.
For `CN1CCN(CCNC(=O)n2cnc3cc(C(F)(F)F)ccc32)CC1` [Example 78, N-(2-(4-Methylpiperazin-1-yl)ethyl)-5-(trifluoromethyl)-1H-benzo[d]imidazole-1-carboxamide], in that order: 32.7 µg/mL (≈ 92 µM) and above 1000 nM.
For `N#Cc1cccc2c1ncn2C(=O)NCCCOc1ccccc1` [Example 131, 4-Cyano-N-(3-phenoxypropyl)-1H-benzo[d]imidazole-1-carboxamide], in that order: 5 µg/mL (≈ 15.6 µM) and below 200 nM.

The values above are taken from patent US20220380319A1 (Bial - R&D Investments, S.A., priority 2019, published 2022).
